Measurements from US9629847B2, “Compositions and methods for treating symptoms of inflammatory related conditions using a combination of an antihistamine and a stimulant” (priority 2011, dated 2017).

Tested on: TPA induction of neutrophil MPO activity
Assay: Systemic effect: MPO activity in contralateral vehicle-treated ear after topical application (TPA model)
Excerpt: These include dexamethasone, a steroid, and indomethasone, a non-steroid anti-inflammatory drug, which targets cycloxygenases.

Row | effect on MPO activity of contralateral vehicle-treated ear (systemic effect) (mouse, in vivo) | SMILES | effect on MPO activity of contralateral vehicle-treated ear (systemic effect) (topical, increasing concentration)
1 | increasing inhibition of MPO activity | C[C@@H]1C[C@H]2[C@@H]3CCC4=CC(=O)C=C[C@]4(C)[C@@]3(F)[C@@H](O)C[C@]2(C)[C@@]1(O)C(=O)CO [dexamethasone] | –
2 | – | COc1ccc2c(c1)c(CC(=O)O)c(C)n2C(=O)c1ccc(Cl)cc1 [indomethasone] | increasing inhibition of MPO activity
